In patent publication US10301292B2, “Bicyclic compound” (Takeda Pharmaceutical Company Limited, priority 2014, dated 2019):

Key:
[1] = system: HCT116 cells; assay: Growth inhibitory activity on HCT116 cell (CellTiter-Glo); assay type: cell-based; settings: table head: 10 μM (text b2498: 1 μM), 3 days incubation; for inhibition at 10 µM: Homo sapiens, HCT-116, 72 h, read-out: HCT116 cell proliferation inhibitory rate (%) at 10 μM
Procedure: The growth inhibitory activity of the compound on HCT116 cell was evaluated by the following method.
HCT116 cells were seeded in a 384 well blackplate at 900 cells/30 μL/well, and maintained in an RPMI medium (Wako)) containing an assay medium (2% fetal bovine serum, 50 Unit/mL penicillin, 50 μg/mL streptomycin (Invitrogen). The next day, a test compound dissolved in dimethyl sulfoxide (DMSO) was diluted with the assay medium, and the obtained compound solution was added by 10 μL to each well of a plate containing HCT116 cells and incubated at 37° C., 5% CO2 (test compound addition group).
A similar reaction was performed without adding a test compound (test compound non-addition group).
Furthermore, a similar reaction was performed under the conditions without adding HCT116 cell and a test compound (control group).
After 3 days, 20 μL of a CellTiter-Glo reagent (Promega KK) was added to the well, and the mixture was stirred for 10 min. Thereafter, the luminescence value of each well was measured by the EnVision™ multilabel counter (Perkin Elmer Inc.).
The HCT116 cell proliferation inhibitory rate (%) of the test compound was determined by the following calculation formula. (1−(luminescence of test compound addition group−luminescence of control group)÷(luminescence of test compound nonaddition group−luminescence of control group))×100

[2] = biological target: T1, human ACC1 (Homo sapiens, UniProt Q13085); assay: Measurement of ACC1 inhibitory activity (Malonyl-CoA production, RapidFire-mass spectrometry); assay type: biochemical; settings: 10 μM of the test compound, recombinant human ACC1; for inhibition at 10 µM: read-out: ACC1 inhibitory rate (%) at 10 μM
T1 construct: His tag (from vector pFAST-BacHTc; protein captured on Ni-NTA) (N); made in house; host or cells: SF-9 insect cells, recombinant baculovirus BAC-ACC1
Procedure: (1) Cloning of Human ACC1 Gene and Preparation of Recombinant Baculovirus
Human ACC1 gene was cloned by PCR using a human liver cDNA library (Clontech) as a template and Primer 1 and Primer 2 shown below. Primer 1 and Primer 2 were prepared by adding SalI, NotI restriction enzyme recognition sequences based on the information of the base sequence of human ACC1 gene (Genbank Accession U19822).
PCR was performed using Pyrobest DNA polymerase (TAKARA BIO INC.). The obtained PCR product was cloned to pT7 Blue vector (Novagen) and after confirmation of the base sequence, digested with restriction enzymes SalI and XbaI. The obtained DNA fragment was inserted into pFAST-BacHTc (Invitrogen) digested with restriction enzymes SalI and XbaI to give expression plasmid ACC1/pFAST-BacHTc.
Using the expression plasmid ACC1/pFAST-BacHTc and BAC-TO-BAC Baculovirus Expression System (Invitrogen), virus stock BAC-ACC1 of recombinant Baculovirus was prepared.
(2) Preparation of ACC1 Protein
SF-9 cells (Invitrogen) were inoculated to a medium (10 L) for insect cells (Sf-900IISFM medium (Invitrogen) containing 5% fetal bovine serum (Trace), 50 mg/L Gentamicin (Wako Pure Chemical Industries, Ltd.), 0.1% Pluronic F-68 (Invitrogen)) at 1.0×10^6 cells/mL, and cultured with shaking in Wave Bioreactor (GE Healthcare) at 27° C., 20 rpm, rocking angle 10°, oxygen concentration 30%.
On day 2 of the culture, recombinant Baculovirus BAC-ACC1 was added, and the cells were cultured for 3 days. The culture medium was centrifuged at 4000×g for 10 min to give virus-infected cells. The cells were washed with phosphate buffered saline (Invitrogen) and centrifuged under the same conditions. The obtained cells were cryopreserved at −80° C.
The cryopreserved cells were thawed in ice and suspended in 800 mL of 25 mM HEPES buffer (pH 7.5) containing 10% Glycerol, 0.3 M NaCl, 1 mM EDTA, 25 mM Sodium β-Glycerophosphate and 1 mM Sodium Orthovanadate, and supplemented with Complete Protease Inhibitor (Roche). The obtained suspension was homogenized two times in a polytron homogenizer (Kinematica) at 20,000 rpm for 20 sec. The obtained cell disruption solution was clarified by centrifugation at 186,000×g for 60 min and the supernatant was passed through Ni-NTA Superflow Cartridges (5 mL) (QUIAGEN). Furthermore, it was washed with 25 mM HEPES buffer (pH 7.5) containing 20 mM Imidazole, 0.3 M NaCl, and eluted with 25 mM HEPES buffer (pH 7.5) containing 250 mM Imidazol, 0.3 M NaCl. The eluate was concentrated by Amicon Ultra-15 (Nihon Millipore K.K.) having a fraction molecular weight of 50K. The obtained concentrate was subjected to gel filtration with 50 mM HEPES buffer (pH 7.5) containing 10 mM MgCl2, 2 mM dithiothreitol, 10 mM tripotassium citrate, 0.3 M NaCl by using HiLoad 26/60 Superdex200 prep grade gel filtration column (GE Healthcare) to give ACC1. The obtained ACC1 was cryopreserved at −80° C.
(3) Measurement of ACC1 Inhibitory Activity
ACC1 obtained in the above-mentioned (2) was diluted with an enzyme reaction buffer (50 mM HEPES (pH 7.5), 10 mM MgCl2, 10 mM Tripottasium Citrate, 2 mM Dithiothreitol, 0.001% Fatty acid free BSA) to a concentration of 0.2 μg/ml, and the mixture was added to each well of a 384 well assay plate by 10 μl. A test compound dissolved in dimethyl sulfoxide (DMSO) was diluted with an enzyme reaction buffer and the resulting solution (5 μl) was added to each well. The mixture was incubated at room temperature for 60 min. Then, a substrate solution (50 mM KHCO3, 200 μM ATP, 200 μM Acetyl-CoA, 5 μl) was added to each well, and the mixture was reacted at room temperature for 30 min. The reaction was quenched by adding a reaction quenching liquid (1.3% formic acid, 0.2 μM Malonyl-^13C3-CoA) by 60 μL each to the obtained reaction mixtures (test compound addition group).
In addition, a reaction was performed in the same manner as above and without adding the test compound (test compound non-addition group). […]

inhibition at 10 µM [2] | Structure (SMILES) | inhibition at 10 µM [1] | other results
100% | CC(=O)NC(C)c1ccc2nc(N3CC(Oc4cccc(OCC5CC5)c4)C3)oc2c1 (centres unmarked) [Example 1, N-(1-(2-(3-(3-(cyclopropylmethoxy)phenoxy)azetidin-1-yl)-1,3-benzoxazol-6-yl)ethyl)acetamide] |  | HCT116 cell proliferation inhibitory rate (%) at 10 μM [1]: 12%
 | CC(=O)NC(C)c1ccc2nc(N3CC(Oc4cccc(OCC5CC5)c4)C3)oc2c1 (centres unmarked) [Example 1b, N-(1-(2-(3-(3-(cyclopropylmethoxy)phenoxy)azetidin-1-yl)-1,3-benzoxazol-6-yl)ethyl)acetamide] |  | HCT116 cell proliferation inhibitory rate (%) at 10 μM [1]: 32%; ACC1 inhibitory rate (%) at 10 μM ([2]; 10 µM): 96%
95% | CC(=O)NC(C)c1ccc2nc(-c3ccc(Oc4cccc(OCC5CC5)c4)cc3)oc2c1 (centres unmarked) [Example 8, N-(1-(2-(4-(3-(cyclopropylmethoxy)phenoxy)phenyl)-1,3-benzoxazol-6-yl)ethyl)acetamide] | 42% | 
99% | CC(=O)NC(C)c1ccc2nc(-c3ccc(Oc4cccc(OCC5CC5)c4)cn3)oc2c1 (centres unmarked) [Example 9, N-(1-(2-(5-(3-(cyclopropylmethoxy)phenoxy)pyridin-2-yl)-1,3-benzoxazol-6-yl)ethyl)acetamide] | 45% | 
 | CC(=O)NC(C)c1ccc2nc(-c3ccc(Oc4cccc(OCC5CC5)c4)cn3)oc2c1 (centres unmarked) [Example 9b, N-(1-(2-(5-(3-(cyclopropylmethoxy)phenoxy)pyridin-2-yl)-1,3-benzoxazol-6-yl)ethyl)acetamide] |  | HCT116 cell proliferation inhibitory rate (%) at 10 μM [1]: 29%; ACC1 inhibitory rate (%) at 10 μM [2]: 99%
94% | CCCOc1cccc(Oc2ccc(-c3nc4ccc(C(C)NC(C)=O)cc4o3)nc2)c1 (centres unmarked) [Example 12, N-(1-(2-(5-(3-propoxyphenoxy)pyridin-2-yl)-1,3-benzoxazol-6-yl)ethyl)acetamide] |  | 
82% | CCCCCc1cccc(OC2CN(c3nc4ccc(C(C)NC(C)=O)cc4o3)C2)c1 (centres unmarked) [Example 29, N-(1-(2-(3-(3-pentylphenoxy)azetidin-1-yl)-1,3-benzoxazol-6-yl)ethyl)acetamide] |  | 
98% | CC(=O)NC(C)c1ccc2oc(-c3ccc(Oc4cccc(OCC5CC5)c4)cn3)cc2c1 (centres unmarked) [Example 31, N-(1-(2-(5-(3-(cyclopropylmethoxy)phenoxy)pyridin-2-yl)-1-benzofuran-5-yl)ethyl)acetamide] | 42% | 
94% | CC(=O)NC(C)c1ccc2cc(-c3ccc(Oc4cccc(OCC5CC5)c4)cn3)oc2c1 (centres unmarked) [Example 35, N-(1-(2-(5-(3-(cyclopropylmethoxy)phenoxy)pyridin-2-yl)-1-benzofuran-6-yl)ethyl)acetamide] | 41% | 
100% | CC(=O)NC(C)c1ccc2c(c1)CC(c1ccc(Oc3cccc(OCC4CC4)c3)cn1)O2 (centres unmarked) [Example 36, N-(1-(2-(5-(3-(cyclopropylmethoxy)phenoxy)pyridin-2-yl)-2,3-dihydro-1-benzofuran-5-yl)ethyl)acetamide] |  | 
 | CC(=O)NC(C)c1ccc2c(c1)CC(c1ccc(Oc3cccc(OCC4CC4)c3)cn1)O2 (centres unmarked) [Example 36b, N-(1-(2-(5-(3-(cyclopropylmethoxy)phenoxy)pyridin-2-yl)-2,3-dihydro-1-benzofuran-5-yl)ethyl)acetamide] |  | ACC1 inhibitory rate (%) at 10 μM ([2]; 10 µM): 101%
101% | CC(=O)NC(C)c1ccc2nc(-c3ccc(Oc4cccc(OCC5CC5)c4)nc3)oc2c1 (centres unmarked) [Example 37, N-(1-(2-(6-(3-(cyclopropylmethoxy)phenoxy)pyridin-3-yl)-1,3-benzoxazol-6-yl)ethyl)acetamide] | 44% | 
100% | CC(=O)NC(C)c1ccc2sc(N3CC(Oc4cccc(OCC5CC5)c4)C3)nc2c1 (centres unmarked) [Example 44, N-(1-(2-(3-(3-(cyclopropylmethoxy)phenoxy)azetidin-1-yl)-1,3-benzothiazol-5-yl)ethyl)acetamide] | 14% | 
82% | CC(=O)NC(C)c1ccc2nc(-c3ncc(Oc4cccc(OCC5CC5)c4)cc3C)oc2c1 (centres unmarked) [Example 47, N-(1-(2-(5-(3-(cyclopropylmethoxy)phenoxy)-3-methylpyridin-2-yl)-1,3-benzoxazol-6-yl)ethyl)acetamide] |  | 
94% | CC(=O)NC(C)c1cc2cc(-c3ccc(Oc4cccc(OCC5CC5)c4)cc3)ccc2o1 (centres unmarked) [Example 52, N-(1-(5-(4-(3-(cyclopropylmethoxy)phenoxy)phenyl)-1-benzofuran-2-yl)ethyl)acetamide] | 20% | 
94% | CC(=O)NC(C)c1ccc2cn(-c3ccc(Oc4cccc(OCC5CC5)c4)cc3)nc2c1 (centres unmarked) [Example 56, N-(1-(2-(4-(3-(cyclopropylmethoxy)phenoxy)phenyl)-2H-indazol-6-yl)ethyl)acetamide] |  | 
97% | CC(=O)NC(C)c1ccc2cc(-c3ccc(Oc4cccc(OCC5CC5)c4)nc3)oc2c1 (centres unmarked) [Example 67, N-(1-(2-(6-(3-(cyclopropylmethoxy)phenoxy)pyridin-3-yl)-1-benzofuran-6-yl)ethyl)acetamide] | 38% | 
94% | CC(=O)NC(C)c1ccc2nc(-c3ccc(Oc4cccc(OCC5CC5)c4)cc3)oc2c1C (centres unmarked) [Example 93, N-(1-(2-(4-(3-(cyclopropylmethoxy)phenoxy)phenyl)-7-methyl-1,3-benzoxazol-6-yl)ethyl)acetamide] |  | 
98% | CC(NC(N)=O)c1ccc2nc(-c3ccc(Oc4cccc(OCC5CC5)c4)nn3)oc2c1 (centres unmarked) [Example 110, 1-(1-(2-(6-(3-(cyclopropylmethoxy)phenoxy)pyridazin-3-yl)-1,3-benzoxazol-6-yl)ethyl)urea] |  | 

Structure (SMILES) | inhibition at 10 µM [2] | inhibition at 10 µM [1] | other results
CCCCOc1cccc(Oc2ccc(-c3nc4ccc(C(C)NC(C)=O)cc4o3)nc2)c1 (centres unmarked) [Example 13, N-(1-(2-(5-(3-butoxyphenoxy)pyridin-2-yl)-1,3-benzoxazol-6-yl)ethyl)acetamide] | 86% | 19% | 
